Reference: patent publication US20250197368A1 (priority 2020, published 2025)

Test system: Male Sprague Dawley rats
Assay: Elevated plus maze assay
Format: in vivo
Conditions: for percent time spent on open arms versus vehicle treated rats: rat; for effect in the rat elevated plus maze assay: dosed orally
Source text: The method, which detects anxiolytic activity, follows that described by Handley and Mithani (Naunyn. Schmied. Arch. Pharmacol., 327, 1-5, 1984). Rodents avoid open spaces (the open arms of an elevated plus-maze). Anxiolytics increase exploratory activity in the open arms, as indicated by increased time spent on the open arms and/or by increased % open-arm entries.
The maze was made from black matte acrylic and consisted of 4 arms of equal length and width (50×10 cm) arranged in the form of a plus sign (+). Two opposite arms were enclosed by 40 cm high walls (closed arms). The two other arms have no walls (open arms). The maze was raised approximately 65 cm above the floor.
Male Sprague Dawley rats (c. 200-300 g) were used for the study. 13 to 15 rats were studied per group.
Compounds were evaluated at three or four doses, administered p.o. 30 minutes to 2 hours before the test, at 5 mL per kg of body weight and its effects compared with vehicle-treated group.-Chlordiazepoxide hydrochloride (5 mg/kg, prepared in 0.9% saline), administered i.p. 30 minutes before the test, was used as reference substance to compare with the vehicle treated group.
The day before the test, rats were weighed. The compounds were prepared at least 24 hours before the test day. 30 minutes after dosing, each rat was placed in the centre of the apparatus and its behaviour was recorded for 5 minutes. The animals' behaviour on the maze was tracked using a camera mounted above the maze and the image analysed using EthoVision XT 13 video tracking software.
The percentage of time spent in the open arms was calculated by dividing the time spent on open arms to the total time in the maze.
Data were analysed by comparing treated groups with vehicle control group using one-way ANOVA followed by post-hoc Dunnett's tests.

| Structure (SMILES) | percent time spent on open arms versus vehicle treated rats (1, 3, and 10 mg/kg p.o.) | effect in the rat elevated plus maze assay | percent time spent on open arms versus vehicle treated rats (1 and 3 mg/kg p.o.) | percent time spent on open arms versus vehicle treated rats (0.3, 1 and 3 mg/kg p.o.) |
| --- | --- | --- | --- | --- |
| CCCNC(=O)c1c(N)c2cccc(-c3cnccc3OC)c2[nH]c1=O [Example 17, 4-Amino-8-(4-methoxy-3-pyridyl)-2-oxo-N-propyl-1H-quinoline-3-carboxamide] | significantly higher | anxiolytic-like effects |  |  |
| CCCNC(=O)c1c(N)c2cccc(-c3cnc(C)cc3OC)c2[nH]c1=O [Example 18, 4-Amino-8-(4-methoxy-6-methyl-3-pyridyl)-2-oxo-N-propyl-1H-quinoline-3-carboxamide] |  | anxiolytic-like effects | significantly higher |  |
| CCCNC(=O)c1c(N)c2cccc(-c3nc(C)ncc3F)c2[nH]c1=O [Example 40, 4-Amino-8-(5-fluoro-2-methyl-pyrimidin-4-yl)-2-oxo-N-propyl-1H-quinoline-3-carboxamide] |  | anxiolytic-like effects |  | significantly higher |
